We go through one compound from ChEMBL document CHEMBL6127139, “Lysine-Targeted Covalent Inhibitors of PI3Kδ Synthesis and Screening by In Situ Interaction Upgradation” (J Med Chem, 2024).

The subject of series [1] is SU-DHL-6. Kind of series: Antitumor activity against human SU-DHL-6 cells xenografted in male nude mouse assessed as tumor growth inhibition at 5 mg/kg/day, po administered for 14 days relative to control. Type of series: functional. The settings on record: SU-DHL-6, 336 h, time 14 day, read-out: TGI. (In general: Xenograft models place foreign cells or tissue in a host animal.)

Series [2] has as its system SU-DHL-6. Kind of series: Induction of apoptosis in human SU-DHL-6 cells assessed as necrotic cells at 0.01 uM incubated for 48 hrs by Annexin V-FITC/PI staining based flow cytometric analysis (reference value: 1.05 %). It counts as functional. On the technique in general: In flow cytometry, cells or beads pass a laser one at a time.
Series [3] can be described thus: Selectivity index, ratio of IC50 for inhibition of recombinant PI3Kgamma (unknown origin) using PIP2:3PS as substrate to IC50 for inhibition of recombinant PI3Kdelta (unknown origin) using PIP2:3PS as substrate.
The test system of series [4] is SU-DHL-6. Kind of series: Irreversible inhibition of AKT phosphorylation in human SU-DHL-6 cells preincubated for 12 hrs followed by compound washout and measured upto 72 hrs by Western blot analysis. It counts as cell-based. A general note: A western blot detects proteins with antibodies after separation by electrophoresis.
Series [5] concerns SU-DHL-6. Kind of series: Induction of apoptosis in human SU-DHL-6 cells assessed as viable cells at 1 uM incubated for 48 hrs by Annexin V-FITC/PI staining based flow cytometric analysis (reference value: 89.81 %). It counts as functional. The following applies: read-out: Activity.
Series [6] concerns SU-DHL-6. Kind of series: Induction of apoptosis in human SU-DHL-6 cells assessed as viable cells at 0.01 uM incubated for 48 hrs by Annexin V-FITC/PI staining based flow cytometric analysis (reference value: 89.81 %). Type of series: functional. The settings on record: read-out: Activity.
Series [7] concerns the target T1, Phosphatidylinositol 4,5-bisphosphate 3-kinase catalytic subunit delta isoform (Homo sapiens) (UniProt O00329).
T1 sequence (whole entry): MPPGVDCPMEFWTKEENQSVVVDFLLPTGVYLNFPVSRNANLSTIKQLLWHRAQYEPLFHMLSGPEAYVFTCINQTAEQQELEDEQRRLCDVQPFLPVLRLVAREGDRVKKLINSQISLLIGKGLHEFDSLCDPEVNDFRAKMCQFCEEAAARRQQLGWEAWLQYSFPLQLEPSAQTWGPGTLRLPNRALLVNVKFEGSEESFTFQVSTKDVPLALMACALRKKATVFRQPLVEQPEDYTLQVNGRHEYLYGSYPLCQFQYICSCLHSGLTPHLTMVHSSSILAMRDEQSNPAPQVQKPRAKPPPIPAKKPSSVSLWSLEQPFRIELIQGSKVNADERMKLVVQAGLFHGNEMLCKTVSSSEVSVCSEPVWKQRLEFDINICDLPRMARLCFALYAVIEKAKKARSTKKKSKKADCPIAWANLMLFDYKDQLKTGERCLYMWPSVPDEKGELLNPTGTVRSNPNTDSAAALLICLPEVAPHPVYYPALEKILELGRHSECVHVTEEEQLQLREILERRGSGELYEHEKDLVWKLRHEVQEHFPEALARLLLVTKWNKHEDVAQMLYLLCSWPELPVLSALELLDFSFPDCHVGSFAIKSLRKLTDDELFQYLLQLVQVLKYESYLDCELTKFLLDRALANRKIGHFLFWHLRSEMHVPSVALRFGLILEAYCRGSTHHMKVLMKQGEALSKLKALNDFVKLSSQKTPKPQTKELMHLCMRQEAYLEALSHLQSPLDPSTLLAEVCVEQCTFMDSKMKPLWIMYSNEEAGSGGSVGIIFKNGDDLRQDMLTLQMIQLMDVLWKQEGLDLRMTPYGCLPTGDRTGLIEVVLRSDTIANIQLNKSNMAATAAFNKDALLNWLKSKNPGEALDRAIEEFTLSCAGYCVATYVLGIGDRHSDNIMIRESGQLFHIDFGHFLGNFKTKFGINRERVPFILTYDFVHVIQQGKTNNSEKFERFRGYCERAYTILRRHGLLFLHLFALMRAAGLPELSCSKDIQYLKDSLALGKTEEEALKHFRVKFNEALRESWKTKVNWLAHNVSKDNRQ
Kind of series: Covalent inhibition of PI3Kdelta (unknown origin) using PIP2:3PS as substrate assessed as rate constant for irreversible inactivation (Kinact) incubated upto 180 mins in presence of ATP by ADP-Glo reagent based assay.

The test system of another series is Raji. Kind of series: Growth inhibition of human Raji cells incubated for 72 hrs by MTT assay. It counts as functional.
Series [8] deals with T1, Phosphatidylinositol 4,5-bisphosphate 3-kinase catalytic subunit delta isoform (Homo sapiens). Kind of series: Potency index, ratio of idelalisib IC50 to test compound IC50 for inhibition of recombinant PI3Kdelta (unknown origin) using PIP2:3PS as substrate preincubated for 20 mins followed by ATP addition and measured after 1 hrs by ADP-Glo reagent based assay. The settings on record: time 80.0 min.

The test system of series [9] is SU-DHL-6. Kind of series: Induction of apoptosis in human SU-DHL-6 cells assessed as early apoptotic cells at 1 uM incubated for 48 hrs by Annexin V-FITC/PI staining based flow cytometric analysis (reference value: 5.02 %). Type of series: functional.
For series [10], the system named is SU-DHL-6. Kind of series: Antiproliferative activity against human SU-DHL-6 cells assessed as inhibition of cell viability preincubated for 12 hrs followed by compound washout and measured after 60 hrs by MTT assay. Type of series: functional, cell-based.
Series [11] can be described thus: Selectivity index, ratio of IC50 for inhibition of recombinant PI3Kbeta (unknown origin) using PIP2:3PS as substrate to IC50 for inhibition of recombinant PI3Kdelta (unknown origin) using PIP2:3PS as substrate.
Series [12] concerns SU-DHL-6. Kind of series: Induction of apoptosis in human SU-DHL-6 cells assessed as early apoptotic cells at 0.01 uM incubated for 48 hrs by Annexin V-FITC/PI staining based flow cytometric analysis (reference value: 5.02 %). Type of series: functional.
Series [13] in a line: Growth inhibition of PI3Kdelta-overexpressing human SU-DHL-6 cells incubated for 72 hrs by MTT assay. Type of series: functional.
A further series relates to HCT-116. Kind of series: Growth inhibition of human HCT-116 cells incubated for 72 hrs by MTT assay. It counts as functional.
For series [14], the system named is SU-DHL-6. Kind of series: Induction of apoptosis in human SU-DHL-6 cells assessed as late apoptotic cells at 0.1 uM incubated for 48 hrs by Annexin V-FITC/PI staining based flow cytometric analysis (reference value: 4.12 %). It counts as functional.
Series [15] has as its system SU-DHL-6. Kind of series: Potency index, ratio of idelalisib GI50 to test compound GI50 for growth inhibition of PI3Kdelta-overexpressing human SU-DHL-6 cells incubated for 72 hrs by MTT assay. Type of series: functional.
Series [16] deals with SU-DHL-6. Kind of series: Induction of apoptosis in human SU-DHL-6 cells assessed as necrotic cells at 1 uM incubated for 48 hrs by Annexin V-FITC/PI staining based flow cytometric analysis (reference value: 1.05 %). Type of series: functional.
For series [17], the system named is SU-DHL-6. Kind of series: Induction of apoptosis in human SU-DHL-6 cells assessed as viable cells at 0.1 uM incubated for 48 hrs by Annexin V-FITC/PI staining based flow cytometric analysis (reference value: 89.81 %). It counts as functional. The settings on record: read-out: Activity.
The nature of series [18]: Toxicity in male nude mouse xenografted with human SU-DHL-6 cells assessed as change in body weight at 5 to 30 mg/kg/day, po administered for 14 days. The following applies: in vivo, 336 h, dose 5-30 mg/kg/day, time 14 day. It counts as organism-based.
The test system of series [19] is SU-DHL-6. Kind of series: Irreversible inhibition of AKT phosphorylation in human SU-DHL-6 cells preincubated for 12 hrs followed by compound washout and measured after 24 hrs by Western blot analysis. It counts as cell-based.
Series [20] relates to SU-DHL-6. Kind of series: Induction of apoptosis in human SU-DHL-6 cells assessed as early apoptotic cells at 0.1 uM incubated for 48 hrs by Annexin V-FITC/PI staining based flow cytometric analysis (reference value: 5.02 %). Type of series: functional.

Active and inactive are the calls of the source. No cut-off for these calls is given here.

What is called GI50 is the concentration at which growth is held to half of that of the control. Read a low GI50 as more potent growth inhibition.

Take `COc1ncc(-c2ccc3ncnc(N[C@H]4CCN(C(=O)C5CCOCC5)C4)c3n2)cc1C(=O)Oc1ccccc1`: the inhibition in vivo at 5 mg/kg/day in the series with SU-DHL-6 [1] is 84%. Besides, the Activity with SU-DHL-6 [2] was 0.52%; with SU-DHL-6 [9], 63.74%; in the series with SU-DHL-6 [12], 10.3%; in the series with SU-DHL-6 [14], 15.06%; with SU-DHL-6 [16], 1.57%; in series [18], “Non-Toxic”. In addition, the Activity in the series on SU-DHL-6 [20] came to 17.68%. Also, the Ratio IC50 in [3] is 359; in series [8], 10; in series [11], 753. The inhibition result with SU-DHL-6 [4] and in the series with SU-DHL-6 [19] was “Active” throughout. In addition, the viability at 1 µM with SU-DHL-6 [5] was found to be 14.2%. Further, in the series on SU-DHL-6 [6], the viability at 0.01 µM is 85%. In addition, in series [7], the Kinact is 0.02 min⁻¹. Further, the GI50 in the series with Raji came to 5390 nM; in [13], 2 nM; in the series with HCT-116 it was 1350 nM. Further, the outcome in the series on SU-DHL-6 [10] was Active. Further, the RatioGI50 in the series with SU-DHL-6 [15] is reported as about 10. Besides, the viability at 0.1 µM in the series on SU-DHL-6 [17] was 65.3%.
